In patent US8324245B2, “Quinoline derivative and quinazoline derivative inhibiting self-phosphorylation of hepatocytus proliferator receptor, and medicinal composition containing the same” (Kyowa Hakko Kirin Co., Ltd., priority 2001, dated 2012):

Molecular target: T1, met (HGF receptor) in human gastric cancer cells MKN45 (Homo sapiens, UniProt P08581)
T1 construct: endogenous in cells; host or cells: MKN45 human gastric cancer cells
Assay: Inhibitory activity against met-autophosphorylation using ELISA method (2), MKN45 cells, HGF-independent
Assay type: cell-based
Method in brief: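 MKN45 cells, 3×10^4 per well in RPMI with 0.1% FCS overnight, were exposed to compound in DMSO for 1 h at 37 °C without HGF. Lysates were captured on anti-phosphotyrosine (PY20) plates, Met detected with anti-Met and peroxidase secondary antibody, absorbance at 450 nm.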

T1 sequence (P08581 25-1390): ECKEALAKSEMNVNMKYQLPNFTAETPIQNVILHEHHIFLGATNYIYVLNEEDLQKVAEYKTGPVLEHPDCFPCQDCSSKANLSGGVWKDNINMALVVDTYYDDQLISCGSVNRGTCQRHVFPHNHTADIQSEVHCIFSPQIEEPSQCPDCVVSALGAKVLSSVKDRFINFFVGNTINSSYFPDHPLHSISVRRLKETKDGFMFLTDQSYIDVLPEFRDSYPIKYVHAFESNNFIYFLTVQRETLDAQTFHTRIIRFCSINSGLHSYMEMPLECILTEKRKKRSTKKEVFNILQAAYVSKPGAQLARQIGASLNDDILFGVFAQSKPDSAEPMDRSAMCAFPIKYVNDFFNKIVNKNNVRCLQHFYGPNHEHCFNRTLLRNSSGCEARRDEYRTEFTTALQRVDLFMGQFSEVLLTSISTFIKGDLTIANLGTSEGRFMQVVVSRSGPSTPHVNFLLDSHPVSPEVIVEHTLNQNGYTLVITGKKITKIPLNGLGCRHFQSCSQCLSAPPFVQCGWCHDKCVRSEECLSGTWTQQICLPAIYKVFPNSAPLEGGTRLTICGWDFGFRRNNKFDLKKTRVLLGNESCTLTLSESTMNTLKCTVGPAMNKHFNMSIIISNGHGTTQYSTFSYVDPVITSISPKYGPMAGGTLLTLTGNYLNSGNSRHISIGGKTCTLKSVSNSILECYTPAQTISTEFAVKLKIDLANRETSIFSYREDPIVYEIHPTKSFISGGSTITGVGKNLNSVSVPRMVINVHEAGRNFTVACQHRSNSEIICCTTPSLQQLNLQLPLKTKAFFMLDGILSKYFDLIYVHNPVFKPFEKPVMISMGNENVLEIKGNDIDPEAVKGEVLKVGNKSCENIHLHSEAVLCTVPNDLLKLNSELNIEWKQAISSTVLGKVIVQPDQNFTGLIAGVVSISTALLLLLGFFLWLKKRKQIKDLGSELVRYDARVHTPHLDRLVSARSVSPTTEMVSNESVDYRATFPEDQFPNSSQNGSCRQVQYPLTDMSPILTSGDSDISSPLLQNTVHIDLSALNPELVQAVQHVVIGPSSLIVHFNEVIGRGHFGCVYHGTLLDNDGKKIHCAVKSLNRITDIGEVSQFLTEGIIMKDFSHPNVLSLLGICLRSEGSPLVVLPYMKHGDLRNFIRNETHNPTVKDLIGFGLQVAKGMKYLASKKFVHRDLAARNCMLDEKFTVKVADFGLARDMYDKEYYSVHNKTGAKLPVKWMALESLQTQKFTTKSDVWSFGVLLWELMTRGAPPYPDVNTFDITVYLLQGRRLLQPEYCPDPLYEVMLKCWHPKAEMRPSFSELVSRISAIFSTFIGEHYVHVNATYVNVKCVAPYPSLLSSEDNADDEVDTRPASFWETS

SMILES	IC50 [nM]
COc1cc2nccc(Oc3ccc(NC(=O)CC(=O)Nc4cccnc4)cc3)c2cc1OC [Example 227, N-[4-(6,7-dimethoxyquinolin-4-yloxy)phenyl]-N′-pyridin-3-ylmalonamide]	4360
COc1cc2nccc(Oc3ccc(NC(=O)C(C)(C)C(=O)Nc4ccccc4)cc3)c2cc1OC [Example 228, N-[4-(6,7-dimethoxyquinolin-4-yloxy)phenyl]-2,2-dimethyl-N′-phenylmalonamide]	394
COc1cc2nccc(Oc3ccc(NC(=O)NC(=O)Nc4ccc(F)cc4F)cc3)c2cc1OC [Example 229, N-(2,4-difluorophenyl)-({[4-(6,7-dimethoxy-quinolin-4-yloxy)anilino]carbonyl}amino)methanamide]	273
COc1cc2nccc(Oc3ccc(NC(=O)NC(=O)Nc4ncc(C)cc4Br)cc3)c2cc1OC [Example 230, N-(3-bromo-5-methyl-2-pyridyl)-({[4-(6,7-dimethoxyquinolin-4-yloxy)anilino]carbonyl}amino)-methanamide]	340
COc1cc2nccc(Oc3ccc(NC(=O)NC(=O)Nc4ccc(Cl)cn4)cc3)c2cc1OC [Example 231, N-(5-chloro-2-pyridyl)-({[4-(6,7-dimethoxy-quinolin-4-yloxy)anilino]carbonyl}amino)methanamide]	329
COc1cc2nccc(Oc3ccc(NC(=O)NC(=O)Nc4cc(C)on4)cc3)c2cc1OC [Example 232, N-(5-methyl-3-isoxazolyl)-({[4-(6,7-dimethoxyquinolin-4-yloxy)anilino]carbonyl}amino)-methanamide]	256
COc1cc2nccc(Oc3ccc(NC(=O)NC(=O)Nc4ncccc4C)cc3)c2cc1OC [Example 233, N-(3-methyl-2-pyridyl)-({[4-(6,7-dimethoxy-quinolin-4-yloxy)anilino]carbonyl}amino)methanamide]	322
COc1cc2nccc(Oc3ccc(NC(=O)NC(=O)Nc4cccc(C)n4)cc3)c2cc1OC [Example 234, N-(6-methyl-2-pyridyl)-({[4-(6,7-dimethoxy-quinolin-4-yloxy)anilino]carbonyl}amino)methanamide]	457
COc1cc2nccc(Oc3ccc(NC(=O)NC(=O)Nc4ccc(C)cn4)cc3)c2cc1OC [Example 235, N-(5-methyl-2-pyridyl)-({[4-(6,7-dimethoxy-quinolin-4-yloxy)anilino]carbonyl}amino)methanamide]	215
COc1cc2nccc(Oc3ccc(NC(=O)NC(=O)Nc4ccccn4)cc3)c2cc1OC [Example 236, N-(2-pyridyl)-({[4-(6,7-dimethoxyquinolin-4-yloxy)anilino]carbonyl}amino)methanamide]	235
COc1cc2nccc(Oc3ccc(NC(=O)NC(=O)Nc4ccnn4C)cc3)c2cc1OC [Example 237, N-(1-methyl-1H-5-pyrazolyl)-({[4-(6,7-dimethoxyquinolin-4-yloxy)anilino]carbonyl}amino)-methanamide]	1470
COc1cc2nccc(Oc3ccc(NC(=O)NC(=O)Nc4ccc5c(c4)OCCO5)cc3)c2cc1OC [Example 238, N-(2,3-dihydro-1,4-benzodioxin-6-yl)-({[4-(6,7-dimethoxyquinolin-4-yloxy)anilino]carbonyl}amino)-methanamide]	4020
COc1cc2nccc(Oc3ccc(NC(=O)NC(=O)Nc4cccc(C#N)c4)cc3)c2cc1OC [Example 239, N-(3-cyanophenyl)-({[4-(6,7-dimethoxy-quinolin-4-yloxy)anilino]carbonyl}amino)-methanamide]	1580
COc1cc2nccc(Oc3ccc(NC(=O)NC(=O)Nc4ccccc4C(F)(F)F)cc3)c2cc1OC [Example 240, N-[2-(trifluoromethyl)phenyl]-({[4-(6,7-dimethoxyquinolin-4-yloxy)anilino]carbonyl}amino)methan-amide]	2740
COc1cc2nccc(Oc3ccc(NC(=O)NC(=O)Nc4ccc(CC#N)cc4)cc3)c2cc1OC [Example 241, N-[4-(cyanomethyl)phenyl]-({[4-(6,7-dimethoxyquinolin-4-yloxy)anilino]carbonyl}amino)-methanamide]	3320
